Data taken from ChEMBL document CHEMBL1125975, “Enzymic and nonenzymic lipid peroxidation: inhibition by substituted phenoxazines” (Bioorg Med Chem Lett, 1991).
≈ marks a conversion by molar mass, not a printed value.

Organism: Oryctolagus cuniculus
Assay: Minimum concentration of compound was evaluated for inhibiting iron-dependent lipid peroxidation of rabbit brain homogenate in vitro
Assay type: functional

SMILES | MIC [µM]
COc1ccc2c(c1C(=O)O)Nc1ccccc1O2 | 9.1 (≈ 2.34 µg/mL)
CN(O)C(=O)/C=C/c1ccc2c(c1)Nc1ccccc1O2 | 0.35 (≈ 0.0988 µg/mL)
CN(O)C(=O)c1ccc2c(c1)Nc1ccccc1O2 | 0.65 (≈ 0.167 µg/mL)
O=C(NO)c1ccc2c(c1)Nc1ccccc1O2 | 0.41 (≈ 0.0993 µg/mL)
COc1ccc2c(c1C(=O)NO)Nc1ccccc1O2 | 3.7 (≈ 1.01 µg/mL)
COC(=O)c1ccc2c(c1)Nc1ccccc1O2 | 0.22 (≈ 0.0531 µg/mL)
O=C(O)c1ccc2c(c1)Nc1ccccc1O2 | 0.44 (≈ 0.1 µg/mL)
O=C(O)/C=C/c1ccc2c(c1)Nc1ccccc1O2 | 0.12 (≈ 0.0304 µg/mL)
CCOC(=O)/C=C/c1ccc2c(c1)Nc1ccccc1O2 | 0.19 (≈ 0.0534 µg/mL)
COC(=O)c1cccc2c1Nc1ccccc1O2 | 4.2 (≈ 1.01 µg/mL)
O=C(O)c1cccc2c1Nc1ccccc1O2 | 4.4 (≈ 1 µg/mL)
c1ccc2c(c1)Nc1ccccc1O2 [PHENOXAZINE] | 0.055 (≈ 0.0101 µg/mL)
